In patent US20210353593A1 (Chinook Therapeutics, Inc., priority 2019, published 2021):
“Also recorded” adds a separate entry of the source.

How the values were obtained:
[1] = patients with diabetic kidney disease; cited from earlier work
[2] = tested on: primary human renal mesangial cells (HRMCs); assay: Proliferation (BrdU) of primary human renal mesangial cells stimulated with IgA-containing immune complexes; type: cell-based
Text: Primary human mesangial cells in a culture were stimulated with pathogenic galactose deficient (Gd)-IgA containing immune complexes isolated from human IgA nephropathy patients.
Specifically, pathogenic IgA-containing immune complexes were isolated from serum from either IgA nephropathy patients or age, gender and ethnicity-matched healthy individuals. Frozen serum was purchased from BioIVT and IgA-containing immune complexes were purified using jacalin affinity chromatography. […] Purified IgA-containing immune complexes were concentrated using a 100K Amicon filtration unit and the amount of total IgA and galactose-deficient IgA (Gd-IgA) in the immune complexes was measured by ELISA (ThermoFisher and IBL America, respectively). […] See, e.g., Novak et. al., Kidney International, 67, pp. 504-516; 2005; Novak et. al., Nephrol. Dial. Transplant, 26, pp. 3451-3457; 2011; Liang et. al., Cell Physiol. Biochem., 36, pp. 1793-1808; 2015; Nguyen et. al., Clin. Kidney 1, 12 (2), pp, 232-238; 2019.

[3] = tested on: upstream regulators in kidney tissue of g-ddY mice; assay: IPA upstream regulator analysis, g-ddY mouse kidney RNA-seq; type: in vivo; details: 30 mg/kg/day

## CCCCN(CCCC)C(=O)CN1C[C@H](c2ccc3c(c2)OCO3)[C@@H](C(=O)O)[C@@H]1c1ccc(OC)cc1 [Atrasentan, (2R,3R,4S)-4-(1,3-benzodioxol-5-yl)-1-[2-(dibutylamino)-2-oxoethyl]-2-(4-methoxyphenyl)pyrrolidine-3-carboxylic acid]
[1]
  risk of renal events (doubling of serum creatinine or end-stage kidney disease): significantly reducing the risk of renal events
[2]; IgA containing serum fractions from healthy controls
  basal cell proliferation in HRMCs: no effect
[2]; immune complexes from three separate IgAN patients, BrdU
  proliferation of HRMCs induced by IgA containing immune complexes from patients with IgA nephropathy: reduces the proliferation; also recorded: significantly attenuated the hyperproliferation
[3]
  26s Proteasome Activation z-score: −2.122
  26s Proteasome Predicted Activation State: Inhibited
  ADGRF5 Activation z-score: 2
  ADGRF5 Predicted Activation State: Activated
  AGT Activation z-score: −4.741
  AGT Predicted Activation State: Inhibited
  BMP2 Activation z-score: −2.435
  BMP2 Predicted Activation State: Inhibited
  CCL5 Activation z-score: −2.268
  CCL5 Predicted Activation State: Inhibited
  CCN5 Activation z-score: 2.45
  CCN5 Predicted Activation State: Activated
  CCR2 Activation z-score: −3.791
  CCR2 Predicted Activation State: Inhibited
  CD40LG Activation z-score: −3.607
  CD40LG Predicted Activation State: Inhibited
  CG Activation z-score: −4.34
  CG Predicted Activation State: Inhibited
  CHRM3 Activation z-score: −2.425
  CHRM3 Predicted Activation State: Inhibited
  CSF2 Activation z-score: −5.645
  CSF2 Predicted Activation State: Inhibited
  CSF3 Activation z-score: −3.116
  CSF3 Predicted Activation State: Inhibited
  CXCL12 Activation z-score: −2.851
  CXCL12 Predicted Activation State: Inhibited
  DKK1 Activation z-score: 2.113
  DKK1 Predicted Activation State: Activated
  EDN1 Activation z-score: −4.26
  EDN1 Predicted Activation State: Inhibited
  EDNRA Activation z-score: −2.449
  EDNRA Predicted Activation State: Inhibited
  EGF Activation z-score: −3.649
  EGF Predicted Activation State: Inhibited
  F2R Activation z-score: −3.04
  F2R Predicted Activation State: Inhibited
  F3 Activation z-score: −3.862
  F3 Predicted Activation State: Inhibited
  FAS Activation z-score: 2.887
  FAS Predicted Activation State: Activated
  FCGR1A Activation z-score: −2.201
  FCGR1A Predicted Activation State: Inhibited
  FGF2 Activation z-score: −4.33
  FGF2 Predicted Activation State: Inhibited
  FGF23 Activation z-score: −2.497
  FGF23 Predicted Activation State: Inhibited
  GDF2 Activation z-score: −2.055
  GDF2 Predicted Activation State: Inhibited
  GPER1 Activation z-score: −3.527
  GPER1 Predicted Activation State: Inhibited
  HGF Activation z-score: −5.138
  HGF Predicted Activation State: Inhibited
  HTR7 Activation z-score: −2.219
  HTR7 Predicted Activation State: Inhibited
  IFNA2 Activation z-score: −3.465
  IFNA2 Predicted Activation State: Inhibited
  IFNAR1 Activation z-score: −3.094
  IFNAR1 Predicted Activation State: Inhibited
  IFNG Activation z-score: −4.604
  IFNG Predicted Activation State: Inhibited
  IGF1 Activation z-score: −2.676
  IGF1 Predicted Activation State: Inhibited
  IGF1R Activation z-score: 2.165
  IGF1R Predicted Activation State: Activated
  IL1A Activation z-score: −4.942
  IL1A Predicted Activation State: Inhibited
  IL1B Activation z-score: −7.154
  IL1B Predicted Activation State: Inhibited
  IL2 Activation z-score: −4.023
  IL2 Predicted Activation State: Inhibited
  IL3 Activation z-score: −3.894
  IL3 Predicted Activation State: Inhibited
  IL6 Activation z-score: −3.872
  IL6 Predicted Activation State: Inhibited
  IL6R Activation z-score: −2.179
  IL6R Predicted Activation State: Inhibited
  IL10 Activation z-score: −2.775
  IL10 Predicted Activation State: Inhibited
  IL21 Activation z-score: −2.886
  IL21 Predicted Activation State: Inhibited
  IL33 Activation z-score: −3.781
  IL33 Predicted Activation State: Inhibited
  Ifn gamma Activation z-score: −3.354
  Ifn gamma Predicted Activation State: Inhibited
  Ige Activation z-score: −4.883
  Ige Predicted Activation State: Inhibited
  LDL Activation z-score: −3.568
  LDL Predicted Activation State: Inhibited
  LGR5 Activation z-score: 2.137
  LGR5 Predicted Activation State: Activated
  Laminin (complex) Activation z-score: 2.043
  Laminin (complex) Predicted Activation State: Activated
  NFkB (complex) Activation z-score: −5.503
  NFkB (complex) Predicted Activation State: Inhibited
  NRG1 Activation z-score: −3.478
  NRG1 Predicted Activation State: Inhibited
  OSM Activation z-score: −5.912
  OSM Predicted Activation State: Inhibited
  PDGF BB Activation z-score: −3.976
  PDGF BB Predicted Activation State: Inhibited
  PDGFB Activation z-score: −2.622
  PDGFB Predicted Activation State: Inhibited
  PF4 Activation z-score: −2.219
  PF4 Predicted Activation State: Inhibited
  PI3K (complex) Activation z-score: −3.293
  PI3K (complex) Predicted Activation State: Inhibited
  PLA2R1 Activation z-score: 2.917
  PLA2R1 Predicted Activation State: Activated
  PRL Activation z-score: −3.529
  PRL Predicted Activation State: Inhibited
  PROKR1 Activation z-score: 2
  PROKR1 Predicted Activation State: Activated
  PTGER4 Activation z-score: 2.017
  PTGER4 Predicted Activation State: Activated
  Pdgf (complex) Activation z-score: −2.779
  Pdgf (complex) Predicted Activation State: Inhibited
  SMO Activation z-score: 2.621
  SMO Predicted Activation State: Activated
  TCR Activation z-score: −2.362
  TCR Predicted Activation State: Inhibited
  TGFB1 Activation z-score: −5.163
  TGFB1 Predicted Activation State: Inhibited
  TGFB2 Activation z-score: −2.631
  TGFB2 Predicted Activation State: Inhibited
  TGFB3 Activation z-score: −2.663
  TGFB3 Predicted Activation State: Inhibited
  TLR3 Activation z-score: −5.02
  TLR3 Predicted Activation State: Inhibited
  TLR4 Activation z-score: −4.561
  TLR4 Predicted Activation State: Inhibited
  TLR9 Activation z-score: −4.894
  TLR9 Predicted Activation State: Inhibited
  TNF Activation z-score: −6.593
  TNF Predicted Activation State: Inhibited
  TNFRSF1A Activation z-score: −2.449
  TNFRSF1A Predicted Activation State: Inhibited
  TNFSF11 Activation z-score: −2.519
  TNFSF11 Predicted Activation State: Inhibited
  TNFSF12 Activation z-score: −3.271
  TNFSF12 Predicted Activation State: Inhibited
  TREM1 Activation z-score: −3.62
  TREM1 Predicted Activation State: Inhibited
  TSLP Activation z-score: −2.533
  TSLP Predicted Activation State: Inhibited
  TYROBP Activation z-score: −2.376
  TYROBP Predicted Activation State: Inhibited
  VEGFA Activation z-score: −2.501
  VEGFA Predicted Activation State: Inhibited
  VEGFB Activation z-score: 3.128
  VEGFB Predicted Activation State: Activated
  WNT3A Activation z-score: −3.711
  WNT3A Predicted Activation State: Inhibited
